The results in this text go back to patent publication US20110118262A1, “Pyrrolidinyl and Piperidinyl Compounds Useful as NHE-1 Inhibitiors” (BOEHRINGER INGELHEIM INTERNATIONAL GMBH, priority 2008, published 2011).

Molecules are shown by their SMILES.

In the assay the target is T1, NHE-1 (Homo sapiens, UniProt P19634).
T1 construct: endogenous in cells; host or cells: HT-29
T1 sequence (P19634 whole entry): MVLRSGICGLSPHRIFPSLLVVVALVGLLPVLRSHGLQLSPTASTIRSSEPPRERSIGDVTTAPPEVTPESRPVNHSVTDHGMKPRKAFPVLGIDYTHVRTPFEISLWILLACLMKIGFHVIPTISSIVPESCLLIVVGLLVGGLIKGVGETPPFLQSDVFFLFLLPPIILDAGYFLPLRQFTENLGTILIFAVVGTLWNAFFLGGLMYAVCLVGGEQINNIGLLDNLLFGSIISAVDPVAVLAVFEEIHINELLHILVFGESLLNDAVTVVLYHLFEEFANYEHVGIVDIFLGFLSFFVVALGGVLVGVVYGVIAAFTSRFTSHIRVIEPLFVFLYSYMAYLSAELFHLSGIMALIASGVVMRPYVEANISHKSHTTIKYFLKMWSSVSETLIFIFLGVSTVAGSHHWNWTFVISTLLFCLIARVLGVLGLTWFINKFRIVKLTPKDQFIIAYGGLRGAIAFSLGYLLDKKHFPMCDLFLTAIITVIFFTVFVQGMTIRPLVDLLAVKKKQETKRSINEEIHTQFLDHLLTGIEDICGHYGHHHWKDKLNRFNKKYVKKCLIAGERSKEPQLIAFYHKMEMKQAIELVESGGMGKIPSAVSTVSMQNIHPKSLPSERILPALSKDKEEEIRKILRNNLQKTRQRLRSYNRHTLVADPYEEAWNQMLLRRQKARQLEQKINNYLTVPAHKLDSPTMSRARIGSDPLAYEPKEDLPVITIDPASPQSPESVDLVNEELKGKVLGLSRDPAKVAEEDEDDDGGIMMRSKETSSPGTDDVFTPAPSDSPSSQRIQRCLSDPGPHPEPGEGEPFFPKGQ
In words: Evaluation of NHE-1 Inhibition (pHi) in HT-29 cells. The assay is classed as cell-based. The conditions noted are these: BCECF dye, 50% inhibition of the intracellular pH recovery, read-out: NHE1 HT29 pHi IC50. The procedure: Evaluation of NHE-1 Inhibition (pHi)
HT-29 cells resuspended in DMEM supplemented with 10% FBS, 1% NEAA, and 1% Penn-Strep are seeded at 10,000 cells/well in collagen coated 384 well plates which are then incubated for 24 hours at 37° C. The next day, the medium is removed and the cells are dye (Invitrogen's BCECF) loaded for 30 minutes at 37° C., washed three times with an acid loading buffer (10 mM NH4Cl, 1.8 mM CaCl2, 90 mM Choline Cl, 5 mM Glucose, 15 mM Hepes, 5 mM KCl, 1 mM MgCl2, adjusted to pH 7.5 with KOH) and further incubated at RT for 30 minutes.
At the end of the incubation, the buffer is removed and 5 uL of fresh acid loading buffer is added to each well to prevent the dessication of the cells. The plate is placed in a Hamamatsu FDSS6000 instrument and candidate compounds are added to the cells.
For the molecule `N=C(N)NC(=O)c1ccc(C2CCN(C(=O)C3(N)CCc4ccccc43)CC2)c(C(F)(F)F)c1` (stereo not drawn) [N-{4-[1-(1-Amino-indane-1-carbonyl)-piperidin-4-yl]-3-trifluoromethyl-benzoyl}-guanidine], the IC50 is 18 nM.

In the case of `Cn1ccnc1C(=O)N1CCC(c2ccc(C(=O)NC(=N)N)cc2C(F)(F)F)CC1` [N-{4-[1-(1-Methyl-1H-imidazole-2-carbonyl)-piperidin-4-yl]-3-trifluoromethyl-benzoyl}-guanidine], the concentration for half-maximal inhibition (IC50) came to 15 nM.

Take `Cn1cccc1C(=O)N1CCC(c2ccc(C(=O)NC(=N)N)cc2C(F)(F)F)CC1` [N-{4-[1-(1-Methyl-1H-pyrrole-2-carbonyl)-piperidin-4-yl]-3-trifluoromethyl-benzoyl}-guanidine]: the IC50 is 79 nM.

For `CN1CCCC(C(=O)N2CCC(c3ccc(C(=O)NC(=N)N)cc3C(F)(F)F)CC2)C1` (stereo not drawn) [N-{4-[1-(1-Methyl-piperidine-3-carbonyl)-piperidin-4-yl]-3-trifluoromethyl-benzoyl}-guanidine], the IC50 is 10 nM.

Take `CN1CCC(C(=O)N2CCC(c3ccc(C(=O)NC(=N)N)cc3C(F)(F)F)CC2)CC1` [N-{4-[1-(1-Methyl-piperidine-4-carbonyl)-piperidin-4-yl]-3-trifluoromethyl-benzoyl}-guanidine]: the IC50 worked out at 0.3 nM.

As for `N=C(N)NC(=O)c1ccc(C2CCN(C(=O)C3CCN(c4ncccn4)CC3)CC2)c(C(F)(F)F)c1` [N-{4-[1-(1-Pyrimidin-2-yl-piperidine-4-carbonyl)-piperidin-4-yl]-3-trifluoromethyl-benzoyl}-guanidine], the half-inhibitory concentration (IC50) turned out to be 70 nM.

With `Cc1cc(C2CCN(C(=O)c3ncc[nH]3)CC2)c(C(F)(F)F)cc1C(=O)NC(=N)N` [N-{4-[1-(1H-Imidazole-2-carbonyl)-piperidin-4-yl]-2-methyl-5-trifluoromethyl-benzoyl}-guanidine], the IC50 was 4 nM.

`Cc1cc(C2CCN(C(=O)c3cc4ccccc4[nH]3)CC2)c(C(F)(F)F)cc1C(=O)NC(=N)N` [N-{4-[1-(1H-Indole-2-carbonyl)-piperidin-4-yl]-2-methyl-5-trifluoromethyl-benzoyl}-guanidine]: the IC50 came out at 290 nM.

Take `Cc1cc(C2CCN(C(=O)c3ccc4[nH]ccc4c3)CC2)c(C(F)(F)F)cc1C(=O)NC(=N)N` [N-{4-[1-(1H-Indole-5-carbonyl)-piperidin-4-yl]-2-methyl-5-trifluoromethyl-benzoyl}-guanidine]: the 50% inhibitory concentration (IC50) is 47 nM.

Consider `N=C(N)NC(=O)c1ccc(C2CCN(C(=O)c3ccc[nH]3)CC2)c(C(F)(F)F)c1` [N-{4-[1-(1H-Pyrrole-2-carbonyl)-piperidin-4-yl]-3-trifluoromethyl-benzoyl}-guanidine], for which the IC50 is 46 nM.

On to `N=C(N)NC(=O)c1ccc(C2CCN(C(=O)c3ccc[nH]3)CC2)cc1` [N-{4-[1-(1H-Pyrrole-2-carbonyl)-piperidin-4-yl]-benzoyl}-guanidine], for which the IC50 stood at 385 nM.

Turning to `N=C(N)NC(=O)c1ccc(C2CCN(C(=O)c3ccc[nH]3)C2)c(C(F)(F)F)c1` (stereo not drawn) [N-{4-[1-(1H-Pyrrole-2-carbonyl)-pyrrolidin-3-yl]-3-trifluoromethyl-benzoyl}-guanidine], the IC50 was determined as 19 nM.

For the molecule `CC(C)(C)C(=O)N1CCC(c2ccc(C(=O)NC(=N)N)cc2C(F)(F)F)CC1` [N-{4-[1-(2,2-Dimethyl-propionyl)-piperidin-4-yl]-3-trifluoromethyl-benzoyl}-guanidine], the IC50 is 68 nM.

`N=C(N)NC(=O)c1ccc(C2CCN(C(=O)c3ccc4c(c3)OCCO4)CC2)c(C(F)(F)F)c1` [N-{4-[1-(2,3-Dihydro-benzo[1,4]dioxine-6-carbonyl)-piperidin-4-yl]-3-trifluoromethyl-benzoyl}-guanidine]: the IC50 was found to be 130 nM.

Take `N=C(N)NC(=O)c1ccc(C2CCN(C(=O)c3ccc4c(c3)CCO4)CC2)c(C(F)(F)F)c1` [N-{4-[1-(2,3-Dihydro-benzofuran-5-carbonyl)-piperidin-4-yl]-3-trifluoromethyl-benzoyl}-guanidine]: the IC50 came out at 23 nM.
